Assay results as given in patent publication EP4563571A1, “PRMT5 INHIBITORS” (Beijing Earthwise Technology Co., Ltd., priority 2022, dated 2024).
Read-outs that look alike come from different tables or passages of the source.

How the values were obtained:
[1] = test system: HCT116^MTAP Deletion cells; test: Anti-proliferation assay on cells (Cell-Titer Glo, 10 days); assay type: cell-based
How it was run: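 HCT116^MTAP Deletion cells seeded at 50 cells/well and exposed to 10-point 3-fold compound dilutions in duplicate (0.1% DMSO) for 10 days at 37 °C. Viability read by CellTiter-Glo luminescence; IC50 derived from GI50 curves of concentration versus inhibition.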

HCT116 cells = test: as above; assay type: cell-based; settings: for Selectivity multiple of HCT116^MTAP WT GI50/ HCT116^MTAP Deletion GI50: ratio of GI50 values
Protocol: Assay example 1: Method of anti-proliferation assay on cells
HCT116^MTAP Deletion cells were from Pharmaron (China); HCT116 cells were from ATCC; McCoy's 5A medium was purchased from Invitrogen (USA); penicillin-streptomycin and fetal bovine serum were purchased from Gibco (USA); a 384-well plate was purchased from PerkinElmer (USA); and Cell-Titer Glo reagent was purchased from Promega (USA).
Compound dissolution: All the compounds were dissolved in dimethyl sulfoxide (DMSO) and then stored. The compounds were stored at room temperature in a dry condition for 3 months for short term storage or at -20 °C for long term storage.
Cell culture and passaging
The cells were cultured strictly in accordance with ATCC requirements. The cell culture medium (McCoy's 5A medium + 10% fetal bovine serum + 1% penicillin + streptomycin) was transferred to a 15 mL centrifuge tube and centrifuged at 1000 rpm for 5 min. The supernatant was removed. The cells were resuspended with complete culture medium, inoculated into a culture dish at the required density, and cultured in an incubator at 37 °C, 95% humid air, and 5% carbon dioxide. The culture medium was replenished or the cells were passaged every 2-3 days depending on the cell growth condition.
Cell proliferation activity assay
When the confluency of cells in the culture dish reached about 90%, the cells were washed twice with PBS, and then treated with trypsin to become single cells. The cells were counted, and 40µl of the cells was inoculated into each well of a 384-well plate (50 cells/well). The plate was equilibrated at 37 °C and 5% carbon dioxide for 10 to 15 minutes. The compounds were injected into the 384-well plate using Echo550, and positive control and negative control (0.1% DMSO) were set up. Each compound was subjected to a 3-fold dilution, resulting in 10 concentration gradients, in duplicate, and the content of DMSO was 0.1%. The 384-well plate was incubated in a cell culture incubator for 10 days.
Then, 40 µl of cell proliferation assay reagent (CTG) was added to the 384-well plate, and the plate was shaken to mix well. Then, the 384-well plate was incubated at 37 °C and 5% carbon dioxide in the dark for 30 minutes. The data were read using the Envision multifunctional microplate reader. […] According to the different drug concentrations and their corresponding inhibition rates, the GI50 curve was drawn using GraphPad 8.0 software. The data were analyzed, and the final IC50 value was obtained.
In addition, the compounds of the present disclosure also have selectivity for mutant HCT116 cells. […] The selectivity data of representative compounds are shown in Table 2: Table 2 Selectivity data of representative compounds

[2] = 240 h, HCT116^MTAP Deletion cells, 10 days incubation, CTG readout, read-out: HCT116^MTAP Deletion GI50
[3] = HCT116^MTAP Deletion cells, 10 days incubation, CTG readout, read-out: HCT116^MTAP Deletion GI50

| Compound | GI50 [1, 2] [nM] | Selectivity multiple of HCT116^MTAP WT GI50/ HCT116^MTAP Deletion GI50 (HCT116 cells) | other results |
| --- | --- | --- | --- |
| CCC(C)N(Cc1ccc(-c2ccn(C)n2)cn1)C(=O)C(=O)Nc1cnc(N)c2c1cnn2C (centres unmarked) [Example 88] | < 10 | 161 | – |
| CN(C(=O)C(=O)Nc1cnc(N)c2c1cnn2C)C1COc2cc(Cl)c(Cl)cc21 (centres unmarked) [Example 186-P1] | – | 210 | – |
| CN(C(=O)C(=O)Nc1cnc(N)c2c1cnn2C)C1COCc2cc(-c3cccnc3)ccc21 (centres unmarked) [Example 95] | < 10 | 224 | – |
| CN(C(=O)C(=O)Nc1cnc(N)c2c1cnn2C)C1COCc2c1ccc(C(F)(F)F)c2F (centres unmarked) [Example 195] | < 10 | 226 | – |
| CN(C(=O)C(=O)Nc1cnc(N)c2c1cnn2C)C1COCc2cc(C#N)ccc21 (centres unmarked) [Example 111] | < 10 | 354 | – |
| CN(C(=O)C(=O)Nc1cnc(N)c2c1cnn2C)C1COCc2cc(C3=CCOCC3)ccc21 (centres unmarked) [Example 100] | – | 179 | GI50 [1, 3]: < 10 nM |
| CN(C(=O)C(=O)Nc1cnc(N)c2c1cnn2C)C1COCc2cc(C3CC3)ccc21 (centres unmarked) [Example 104] | 10 to 100 | 144 | – |
| CN(C(=O)C(=O)Nc1cnc(N)c2c1cnn2C)C1COCc2cc(C(F)(F)F)c(F)cc21 (centres unmarked) [Example 167] | < 10 | 61 | – |
| CN(C(=O)C(=O)Nc1cnc(N)c2c1cnn2C)C1COCc2cc(-c3cnn(C)c3)ccc21 (centres unmarked) [Example 99] | – | 285 | GI50 [1, 3]: < 10 nM |
| CN(C(=O)C(=O)Nc1cnc(N)c2c1cnn2C)C1COc2cc(-c3ccnn3C)ccc21 (centres unmarked) [Example 161] | – | 169 | GI50 [1, 3]: < 10 nM |
| CN(C(=O)C(=O)Nc1cnc(N)c2c1cnn2C)C1COCc2cc(-c3cnc(C4CC4)s3)ccc21 (centres unmarked) [Example 194] | < 10 | 429 | – |
| CC1OCC(N(C)C(=O)C(=O)Nc2cnc(N)c3c2cnn3C)c2ccc(C(F)(F)F)cc21 (single isomer, unassigned) [Example 187-P2] | – | 59 | – |
| C[C@H](c1ncccn1)N(Cc1ccc(C(F)(F)F)cn1)C(=O)C(=O)Nc1cnc(N)c2cnn(C)c12 [Example 34] | – | – | GI50 [1, 3]: 100 to 1000 nM; GI50 ([1]; read-out: GI50 for HCT116^MTAP Deletion): ≤ 100 nM; selectivity for mutant HCT116 cells (HCT116 cells; HCT116 GI50 versus HCT116^MTAP Deletion GI50, text b891): more than 300 times; GI50 (HCT116 cells; HCT116 cells): 1000 to 10000 nM |
| Cc1ncc(-c2ccc3c(c2)COCC3N(C)C(=O)C(=O)Nc2cnc(N)c3c2cnn3C)s1 (centres unmarked) [Example 181-P1] | – | 247 | – |
| Cc1cc(-c2ccc3c(c2)OCC3N(C)C(=O)C(=O)Nc2cnc(N)c3c2cnn3C)on1 (centres unmarked) [Example 165] | 10 to 100 | 295 | – |
| CN(C(=O)C(=O)Nc1cnc(N)c2c1cnn2C)C1COCc2cc(-c3cnn(C)c3)ccc21 (centres unmarked) [Example 124-P1] | – | 215 | GI50 [1, 3]: < 10 nM |
| CC(C)C(C)N(Cc1ccc(C(F)(F)F)cn1)C(=O)C(=O)Nc1cnc(N)c2c1cnn2C (centres unmarked) [Example 110-P1] | < 10 | 146 | – |
| CN(C(=O)C(=O)Nc1cnc(N)c2c1cnn2C)C1COc2cc(C(F)(F)F)ccc21 (centres unmarked) [Example 89] | – | 160 | GI50 [1, 3]: < 10 nM |
| CN(C(=O)C(=O)Nc1cnc(N)c2c1cnn2C)C1COCc2cc(Cl)c(Cl)cc21 (single isomer, unassigned) [Example 163-P1] | – | 94 | – |
| CC1OCC(N(C)C(=O)C(=O)Nc2cnc(N)c3c2cnn3C)c2ccc(C(F)(F)F)cc21 (single isomer, unassigned) [Example 187-P1] | – | 78 | – |
| CN(C(=O)C(=O)Nc1cnc(N)c2c1cnn2C)C1COc2cc(-c3cnc(C(F)(F)F)s3)ccc21 (centres unmarked) [Example 164] | 10 to 100 | 337 | – |
| Cc1ccc(-c2ccc3c(c2)COCC3N(C)C(=O)C(=O)Nc2cnc(N)c3c2cnn3C)cn1 (centres unmarked) [Example 184] | < 10 | 221 | – |
| CN(C(=O)C(=O)Nc1cnc(N)c2c1cnn2C)C1COCc2cc(Br)ccc21 (centres unmarked) [Example 94] | < 10 | 144 | – |
| Cc1ncccc1-c1ccc2c(c1)COCC2N(C)C(=O)C(=O)Nc1cnc(N)c2c1cnn2C (centres unmarked) [Example 201] | < 10 | 128 | – |
| CN(C(=O)C(=O)Nc1cnc(N)c2c1cnn2C)C1COCc2c1ccc(Cl)c2Cl (centres unmarked) [Example 168-P1] | – | 147 | – |

| Compound | GI50 [1, 2] [nM] | Selectivity multiple of HCT116^MTAP WT GI50/ HCT116^MTAP Deletion GI50 (HCT116 cells) | other results |
| --- | --- | --- | --- |
| CCC(C)N(Cc1ccc(-c2cnn(C)c2)cn1)C(=O)C(=O)Nc1cnc(N)c2c1cnn2C (centres unmarked) [Example 90] | < 10 | 119 | – |
| CC1OCc2c(NC(=O)C(=O)N(Cc3ccc(C(F)(F)F)cn3)CC3CC3)cnc(N)c21 (centres unmarked) [Example 79] | 100 to 1000 | – | – |
| CCC(C)N(Cc1ccc(C(F)(F)F)cn1)C(=O)C(=O)Nc1cnc(OC)c(C(N)=O)c1 (single isomer, unassigned) [Example 5-P1] | – | – | GI50 [1, 3]: 10 to 100 nM |
| CN(C(=O)C(=O)Nc1cnc(N)c2c1cnn2C)C1COc2cc(Cl)c(Cl)cc21 (racemic) [compound 186] | – | – | GI50 [1, 3]: < 10 nM |
| Cc1nc(-c2ccc3c(c2)OCC3N(C)C(=O)C(=O)Nc2cnc(N)c3c2cnn3C)no1 (centres unmarked) [Example 229] | 10 to 100 | – | – |
| CN(C(=O)C(=O)Nc1cnc(N)c2c1cnn2C)C1COc2cc(-c3ccccc3)ccc21 (centres unmarked) [Example 216] | 10 to 100 | – | – |
| CN(C(=O)C(=O)Nc1cnc(N)c2c1cnn2C)C1COCc2cc(OC3CC3)ccc21 (centres unmarked) [Example 171] | 10 to 100 | – | – |
| C[C@H](c1ncccn1)N(Cc1ccc(C(F)(F)F)cn1)C(=O)C(=O)Nc1cnc(N)c(Cl)c1 [Example 23] | – | – | GI50 [1, 3]: 1000 to 10000 nM |
| Cc1cc(NC(=O)C(=O)N(Cc2ccc(C(F)(F)F)nn2)[C@H](C)c2ncccn2)cnc1N [Example 55] | 100 to 1000 | – | – |
| CN(C(=O)C(=O)Nc1cnc(N)c2c1cnn2C)C1CCc2cc(C(F)(F)F)ccc21 (centres unmarked) [Example 136] | 10 to 100 | – | – |
| CCCN(C(=O)C(=O)Nc1cnc(N)c2c1cnn2C)C1COCc2cc(C(F)(F)F)ccc21 (centres unmarked) [Example 97] | < 10 | – | – |
| Cc1cc(NC(=O)C(=O)N(Cc2ccc(C(F)(F)F)cn2)CC2CCC2)cnc1N [Example 16] | – | – | GI50 [1, 3]: 10 to 100 nM |
| CN(C(=O)C(=O)Nc1cnc(N)c2c1cnn2C)C1CCCN(c2ccccc2)C1 (centres unmarked) [Example 133] | 1000 to 10000 | – | – |
| C[C@H](c1ncccn1)N(Cc1ccc(C(F)(F)F)cn1)C(=O)C(=O)Nc1cnc(N)c2c1cnn2C [Example 30] | – | – | GI50 [1, 3]: 10 to 100 nM |
| Cc1cn(-c2ccc3c(c2)COCC3N(C)C(=O)C(=O)Nc2cnc(N)c3c2cnn3C)cn1 (centres unmarked) [Example 145] | 10 to 100 | – | – |
| CCC(C)N(Cc1ccc(C(F)(F)F)cn1)C(=O)C(=O)Nc1cnc(N)c2c1COC2 (centres unmarked) [Example 54] | 10 to 100 | – | – |
| Cc1ncc(-c2ccc3c(c2)OCC3N(C)C(=O)C(=O)Nc2cnc(N)c3c2cnn3C)s1 (centres unmarked) [Example 170] | < 10 | – | – |
| CN(C(=O)C(=O)Nc1cnc(N)c2c1cnn2C)C1COc2cc(-c3nncn3C3CC3)ccc21 (centres unmarked) [Example 228] | 100 to 1000 | – | – |
| CCC(C)N(Cc1ccc(C2=CCN(C(=O)OC)CC2)cn1)C(=O)C(=O)Nc1cnc(N)c(C)c1 (centres unmarked) [Example 125-P1] | < 10 | – | – |
| Nc1ncc(NC(=O)C(=O)N(Cc2ccc(C(F)(F)F)cn2)Cc2ccnc3[nH]ccc23)c2c1COC2 [Example 64] | 10 to 100 | – | – |
| Cc1cc(NC(=O)C(=O)N(Cc2ccc(C(F)(F)F)cn2)[C@H](C)C2CC2)cnc1N [Example 36] | – | – | GI50 [1, 3]: 10 to 100 nM |
| Cc1cc(NC(=O)C(=O)N(Cc2ccc(N3CCC(F)(F)C3)cn2)[C@H](C)c2ncccn2)cnc1N [Example 29] | – | – | GI50 [1, 3]: 100 to 1000 nM |
| Cc1cc(NC(=O)C(=O)N(CC(C)C)c2cccc(C(F)(F)F)c2)cnc1N [Example 107] | > 10000 | – | – |
| Nc1ncc(NC(=O)C(=O)N(Cc2ccc(C(F)(F)F)cn2)CC2CC2)c2c1COC2 [Example 40] | – | – | GI50 [1, 3]: 100 to 1000 nM |
